Broadly, the IC50 is the midpoint of a concentration-inhibition curve.

In one assay the target is T1, hKCNQ2 potassium channel (Homo sapiens, UniProt O43526, DEL417-446).
T1 construct: Full-length hKCNQ2 cDNAs were amplified from adult human brain cDNA; expressed in transfected cells; host or cells: 293 EBNA (HEK 293E) cells, episomal plasmid pm3AR-hKCNQ2-1, hygromycin B selection
The experiment in a line: Membrane potential-evoked fluorescence (FLIPR, DiBAC) in HEK 293E cells stably expressing hKCNQ2. The class given is cell-based. To be noted: DiBAC-loaded HEK 293E hKCNQ2 cells, FIG. 6. How it is done: The ability of KCNQ2 modulators to alter membrane potential was assessed using a fluorescence imaging plate reader (FLIPR). Cultured HEK 293E cells expressing hKCNQ2 channels are plated on poly-D-lysine-coated 96-well Costar microplates (#3603) at 300,000-750,000 cells/ml and allowed to reach confluence in DMEM (with 10% FBS and 250 ug/ml hygromycin B) at 37° C. and 5% CO2. After reaching confluence, growth medium is removed, replaced with a standard Hank's balanced salt solution containing 5 uM dibac(4)3, bis-oxonol (Molecular Probes # B-438) at 37° C. The cell plate is then placed in the recording chamber (equilibrated to 37° C.) of a fluorescence imaging plate reader (FLIPR; Molecular Devices) along with two drug plates (one containing standard Hank's balanced salt solution+dibac and the other containing standard Hank's balanced salt solution+dibac+test compound at various experimental concentrations).
These cells were loaded with the voltage-sensitive fluorescent dye, DiBAC, that distributes across cell membranes in a voltage-dependent manner. As cells depolarize (become more positive inside), more dye enters the cells and an increase in fluorescence occurs.
In FIG. 7, the relative effects of several M-current modulators on the flourescence of HEK 293E cells stably expressing the hKCNQ2 potassium channel is shown. These cells were loaded with the voltage-sensitive fluorescent dye, DiBAC, that distributes across cell membranes in a voltage-dependent manner. As cells depolarize, more dye enters the cells and an increase in fluorescence occurs. Conversely, as cells hyperpolarize (become more negative inside), more dye leaves the cells and a decrease in fluorescence occurs.

For assay [1] the following is noted: mammalian CNS; cited from earlier work.
The target of a further assay is T2, KQT1 (Homo sapiens, UniProt P51787).
T2 construct: expressed in transfected cells; host or cells: oocytes (Xenopus)
Briefly: Blockade of cloned KQT1 channel in oocytes. The class given is cell-based.

The next assay has as its system rat hippocampal neurons. Conditions: rat hippocampal neurons (Lampe & Brown 1991); cited from earlier work.
In the next assay the target is T3, M-current (Rattus norvegicus, UniProt O88943+O88944).
T3 construct: Recordings of the M-current in sympathetic neurons in intact ganglia were performed at room temperature; from tissue
To be noted: data adapted from Costa and Brown; read-out: IC50 for blockade of M-current; cited from earlier work.

The next assay has as its target T4, Kv4.3 (Homo sapiens, UniProt Q9UK17).
T4 construct: expressed in transfected cells; host or cells: oocytes (Xenopus)
T4 sequence (Q9UK17 1-655): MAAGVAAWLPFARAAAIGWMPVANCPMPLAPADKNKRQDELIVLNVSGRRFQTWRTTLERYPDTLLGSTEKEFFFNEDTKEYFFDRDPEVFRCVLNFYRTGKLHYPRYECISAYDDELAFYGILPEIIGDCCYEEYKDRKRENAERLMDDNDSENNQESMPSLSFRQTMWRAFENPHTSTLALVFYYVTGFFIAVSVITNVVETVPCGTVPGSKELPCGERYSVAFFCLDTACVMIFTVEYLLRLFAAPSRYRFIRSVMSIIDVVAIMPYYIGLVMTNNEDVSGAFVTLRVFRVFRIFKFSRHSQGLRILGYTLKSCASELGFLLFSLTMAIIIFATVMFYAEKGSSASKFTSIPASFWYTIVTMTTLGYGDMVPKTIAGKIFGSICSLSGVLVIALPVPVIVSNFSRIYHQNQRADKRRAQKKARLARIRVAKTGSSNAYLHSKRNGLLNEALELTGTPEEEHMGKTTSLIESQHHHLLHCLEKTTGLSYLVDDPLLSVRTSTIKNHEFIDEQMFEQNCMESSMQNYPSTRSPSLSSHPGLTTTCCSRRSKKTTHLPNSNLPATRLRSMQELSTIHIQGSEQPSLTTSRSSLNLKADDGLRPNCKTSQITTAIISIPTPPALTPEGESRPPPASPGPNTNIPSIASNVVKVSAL
Briefly: Blockade of cloned Kv4.3 channel in oocytes. The class given is cell-based. To be noted: mean±s.e.m.

T2 sequence (P51787 whole entry): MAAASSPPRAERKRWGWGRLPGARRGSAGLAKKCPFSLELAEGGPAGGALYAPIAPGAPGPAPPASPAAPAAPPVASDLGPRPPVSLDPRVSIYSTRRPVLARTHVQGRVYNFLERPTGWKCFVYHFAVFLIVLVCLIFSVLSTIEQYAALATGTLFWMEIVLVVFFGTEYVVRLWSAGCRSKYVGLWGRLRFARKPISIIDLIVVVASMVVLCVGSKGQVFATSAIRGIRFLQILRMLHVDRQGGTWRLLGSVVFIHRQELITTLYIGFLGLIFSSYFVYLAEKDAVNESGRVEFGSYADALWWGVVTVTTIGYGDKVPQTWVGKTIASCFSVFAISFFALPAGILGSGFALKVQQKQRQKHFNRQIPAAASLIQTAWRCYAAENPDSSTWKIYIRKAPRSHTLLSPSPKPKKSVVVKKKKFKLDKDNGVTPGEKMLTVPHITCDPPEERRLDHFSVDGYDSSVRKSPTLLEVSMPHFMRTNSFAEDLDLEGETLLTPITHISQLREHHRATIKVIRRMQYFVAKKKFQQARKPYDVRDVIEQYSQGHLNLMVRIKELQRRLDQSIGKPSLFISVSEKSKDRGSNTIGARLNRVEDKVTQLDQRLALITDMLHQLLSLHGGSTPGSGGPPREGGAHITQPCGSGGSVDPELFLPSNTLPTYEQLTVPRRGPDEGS

In the case of `O=C1N(c2ccccc2)c2ccccc2C1(Cc1ccncc1)Cc1ccncc1` [Linopirdine, 3,3-bis(4-pyridinylmethyl)-1-phenylindolin-2-one], the “Change in fluorescence (membrane depolarization)” value on hKCNQ2 potassium channel was “time- and concentration-dependent increase in flourescence”. Also, the “K+-stimulated release of acetylcholine, dopamine and glutamate” value in assay [1] is “enhance K^+-stimulated release of acetylcholine, dopamine and glutamate”. Moreover, the IC50 was 8.9 ± 0.9 µM against KQT1, 7 ± 1.1 µM on M-current and 86 ± 14 µM at Kv4.3. The Spike frequency adaptation entry in the assay with rat hippocampal neurons was “reduced spike frequency adaptation”.
At Kv4.3, `O=C1c2ccccc2C(Cc2ccncc2)(Cc2ccncc2)c2ccccc21` [XE991, 10,10-bis(4-pyridinylmethyl)-9(10H)-anthracenone] registered an IC50 of 43 ± 7 µM.

(Values after US20040175691A1, “Use of the KCNQ2 and KCNQ3 genes for the discovery of agents useful in the treatment of neurological disorders” (priority 1998, published 2004).)
